Entries after “also recorded” stand apart in the source; their conditions may differ. Read-outs that look alike come from different tables or passages of the source.
Experiments:
HT-29 cells [1] = experiment: Proliferation of HT-29 colon cancer cells, Coulter Counter cell count; type: cell-based, human; conditions: for Cell No. on Day 10: average of triplicate wells; for activity at 10000 µM: read-out: % of Control Cells
Protocol: (§1) Cells were grown in Dulbeccos Modified Eagle medium supplemented with 10% calf serum in an atmosphere of 5% CO2 at 37° C. For growth experiments, cells were seeded into 24-well tissue culture dishes (2 cm^2 /well) at a density of 20,000 cells/well and allowed to attach for 12 hours. The growth medium was then changed and replaced with fresh media containing the test drugs.
(§2) The test drugs were dissolved in tissue culture media at the desired concentration and added to individual wells. To determine the number of cells per well, media was removed and the cells washed with phosphate buffered saline solution. The cells were then incubated 15 minutes with trypsin-EDTA solution until detached. The detached cells were then removed from the wells and counted using a Coulter Counter (Model ZBI).
(§3) The cell numbers shown in Table I are the average of triplicate culture wells.

LS174T cells [2] = experiment: Proliferation of LS174T colon cancer cells, Coulter Counter cell count; type: cell-based, human; conditions: for Cell No. on Day 10: average of triplicate wells; for activity at 10000 µM: 240 h
Protocol: as §1, §2, §3

[3] = cited from earlier work; for absorption: oral balsalazide
human colon cancer cells = experiment: Colon cancer cell proliferation in vitro, comparative statements; type: cell-based
Protocol: as §1, §2, §3
(§4) For dose response studies a sensitive dye binding assay was adapted which allows simultaneous assay of multiple agents and doses in 96-well plates. Cells were plated and allowed to adhere for 24 hours prior to addition of the study drug. Cell densities were then determined 4 days later by fixation of the wells and staining with Sulforhodamine B dye. Optical density of the stained cultures was then determined using a 96-well plate reader at 495 nm (Skehan et al. (1990) J. Natl. Cancer Inst. 82:1107-1112).
Two such oxidation products, gentisic acid (Dull et al. (1987) Biochem. Pharmacol. 36:2467-2472) and 5-nitro-salicylate (Laffafian et al. (1991) Biochem. Pharmacol. 42:1869-1874) have been elucidated.

LoVo cells = experiment: Growth inhibition of LoVo colon cancer cells; type: cell-based; conditions: Homo sapiens, Table IV, read-out: IC50 for inhibition of human colon cancer cell proliferation
Protocol: as §4, with “dye.” for “dye. Optical density of the stained cultures was then determined using a 96-well plate reader at 495 nm (Skehan et al. (1990) J. Natl. Cancer Inst. 82:1107-1112).”

LS174T cells [4] = experiment: LS174T growth with freshly dissolved or pre-dissolved 5-ASA; type: cell-based; conditions: Homo sapiens, 96 h
Protocol: Cells were grown an additional 4 days prior to quantitation.

[5] = system: rectal mucosal reactive oxygen metabolite production; conditions: rectal biopsies, ulcerative colitis patients; cited from earlier work
nitrosamine formation = conditions: from arginine-dependent nitric oxide; cited from earlier work
HRT-18 cells = experiment: Growth inhibition of HRT-18 colon cancer cells; type: cell-based; conditions: Homo sapiens; HRT-18, Table IV; read-out: IC50 for inhibition of human colon cancer cell proliferation
Protocol: as §4, with “dye.” for “dye. Optical density of the stained cultures was then determined using a 96-well plate reader at 495 nm (Skehan et al. (1990) J. Natl. Cancer Inst. 82:1107-1112).”

HT-29 cells [6] = experiment: Dose response growth inhibition of HT-29 cells, Sulforhodamine B dye binding assay; type: cell-based, human; conditions: for IC50: Homo sapiens
Protocol: as §4, with “dye.” for “dye. Optical density of the stained cultures was then determined using a 96-well plate reader at 495 nm (Skehan et al. (1990) J. Natl. Cancer Inst. 82:1107-1112).”

colon cancer cells = experiment: 5-ASA growth inhibitory activity following hypochlorite exposure; type: cell-based; conditions: for inhibition at 10000 µM: 5-ASA 10 mM, read-out: Increase in Growth Inhibition
Excerpt: Indeed certain of its therapeutic benefits in the treatment of intestinal inflammation are thought to be derived from its ability to scavenge free radicals including O2^- released from inflammatory cells and thereby reduced oxidative damage.

LS174T cells [7] = experiment: Dose response growth inhibition of LS174T cells, Sulforhodamine B dye binding assay; type: cell-based, human; conditions: for IC50: Homo sapiens
Protocol: as §4, with “dye.” for “dye. Optical density of the stained cultures was then determined using a 96-well plate reader at 495 nm (Skehan et al. (1990) J. Natl. Cancer Inst. 82:1107-1112).”

colon cancer incidence = conditions: cited from earlier work
polyps = conditions: cited from earlier work; for effect on polyps: sulindac: nine familial polyposis patients, randomized placebo-controlled double-blind crossover
[8] = in vivo; cited from earlier work
colon carcinogenesis = conditions: cited from earlier work
[9] = Homo sapiens, 240 h, HT-29, 10 mM, Day 10
[10] = Homo sapiens, 10 mM, Day 10, read-out: % of Control Cells
[11] = HT-29, Table IV, read-out: IC50 for inhibition of human colon cancer cell proliferation
[12] = Table IV, read-out: IC50 for inhibition of human colon cancer cell proliferation

## Nc1ccc(C(=O)NCCC(=O)O)cc1 [4-ABA, 4-aminobenzoyl-β-alanine]
HT-29 cells [1]; HT-29, 10 mM
  Cell No. on Day 10: 1316625
HT-29 cells [1]; [9]
  activity at 10000 µM: 100%
LS174T cells [2]; 10 mM
  Cell No. on Day 10: 768700
LS174T cells [2]; [10]
  activity at 10000 µM: 108%
[3]
  absorption: poorly absorbed
Human colon cancer cells
  inhibition of colon cancer cell growth (in words): inactive

## Nc1ccc(O)c(C(=O)O)c1 [5-ASA, 5-aminosalicylic acid]
LoVo cells
  IC50: 10.2 mM
HT-29 cells [1]; HT-29, 10 mM
  Cell No. on Day 10: 512825
HT-29 cells [1]; [9]
  activity at 10000 µM: 39%
HT-29 cells [1]; Homo sapiens, HT-29, 10 mM, read-out: growth inhibition
  inhibition at 10000 µM: 82%
LS174T cells [4]; 10 mM dissolved in culture media 4 days prior, read-out: growth response relative to control cultures
  activity at 10000 µM: 22.9%
LS174T cells [4]; freshly dissolved 10 mM, 4 days, read-out: growth response relative to control cells
  activity at 10000 µM: 82.7%
LS174T cells [2]; 10 mM
  Cell No. on Day 10: 8675
LS174T cells [2]; Homo sapiens, 10 mM, read-out: growth inhibition
  inhibition at 10000 µM: 85%
LS174T cells [2]; [10]
  activity at 10000 µM: 1.22%
[5]
  reduction of rectal mucosal reactive oxygen metabolite production: over 90%
[3]; single dose of balsalazide, 96-hour period
  conversion to N-acetyl-5-ASA and excretion in urine: majority
Nitrosamine formation
  inhibition of nitrosamine formation: inhibits nitrosamine formation
HRT-18 cells
  IC50: 10.5 mM
HT-29 cells [6]; HT-29, 0.1-4 mM
  increase in cell number: approximately 20%
HT-29 cells [6]; [11]
  IC50: 11.9 mM
HT-29 cells [6]; HT-29, text (FIG. 5), read-out: IC50
  IC50: 11.8 mM
Colon cancer cells; Na hypochlorite 0 mM
  inhibition at 10000 µM: 0%
Colon cancer cells; Na hypochlorite 0.01 mM
  inhibition at 10000 µM: 2%
Colon cancer cells; Na hypochlorite 0.05 mM
  inhibition at 10000 µM: 4%
Colon cancer cells; Na hypochlorite 0.1 mM
  inhibition at 10000 µM: 8%
Colon cancer cells; Na hypochlorite 0.2 mM
  inhibition at 10000 µM: 26%
Colon cancer cells; Na hypochlorite 0.3 mM
  inhibition at 10000 µM: 42%
Colon cancer cells; Na hypochlorite 0.4 mM
  inhibition at 10000 µM: 48%
Colon cancer cells; unoxidized 5ASA
  Basal inhibitory activity: 45%
LS174T cells [7]; 0.1-1.0 mM
  increase in cell number: approximately 20%
LS174T cells [7]; [12]
  IC50: 11.6 mM
LS174T cells [7]; text (FIG. 5), read-out: IC50
  IC50: 11.5 mM

## O=C(O)c1cc([N+](=O)[O-])ccc1O [5-NSA, 5-nitro-salicylate]
LoVo cells
  IC50: 1.38 mM
HRT-18 cells
  IC50: 1.46 mM
HT-29 cells [6]; [11]
  IC50: 1.63 mM
LS174T cells [7]; [12]
  IC50: 2.69 mM

## CC(=O)Oc1ccccc1C(=O)O [Ac-salicylic acid, acetyl salicylic acid]
HT-29 cells [1]; HT-29, 10 mM
  Cell No. on Day 10: 14625
HT-29 cells [1]; Homo sapiens, HT-29, 240 h
  activity at 10000 µM: 1.11%
Colon cancer incidence; retrospective study (Kune et al.)
  risk of colon cancer development: halving
Colon cancer incidence; retrospective study (Paganini-Hill et al.)
  increased risk of colon cancer: 50%
LS174T cells [2]; 10 mM
  Cell No. on Day 10: 8300
LS174T cells [2]; Homo sapiens, read-out: % of Control Cells
  activity at 10000 µM: 2.24%
Human colon cancer cells
  inhibition of colon cancer cell growth (in words): potently inhibitory

## O=C(O)c1cc(O)ccc1O [Gentisate, gentisic acid]
LoVo cells
  IC50: 4.42 mM
HRT-18 cells
  IC50: 2.98 mM
HT-29 cells [6]; [11]
  IC50: 5.05 mM
Human colon cancer cells
  inhibition of colon cancer cell growth (in words): inhibited cell growth
LS174T cells [7]; [12]
  IC50: 5.85 mM

## CC(=O)Nc1ccc(C(=O)NCCC(=O)O)cc1 [N-acetyl metabolite of 4-ABA]
[3]
  absorption: poorly absorbed

## CC(=O)Nc1ccc(O)c(C(=O)O)c1 [N-acetyl-5-ASA]
[3]; in vivo
  activity of N-acetyl metabolite of 5-ASA: inactive

## [Na+].[O-]Cl [NaOCl, sodium hypochlorite]
Colon cancer cells; 0.4 mM NaOCl
  Background inhibitory activity: less than 2%

## COc1ccc2c(c1)c(CC(=O)O)c(C)n2C(=O)c1ccc(Cl)cc1 [indomethacin]
polyps
  effect on polyps: no influence on polyp regression
[8]
  absorption / activation: absorbed primarily from the upper GI tract

## CC1=C(CC(=O)O)c2cc(F)ccc2/C1=C\c1ccc([S+](C)[O-])cc1 (stereo not shown) [sulindac]
Colon carcinogenesis
  effect on tumor incidence, dimethylhydrazine-induced: reduce tumor incidence only when present during carcinogen administration
polyps; nine familial polyposis patients
  time to regression of polyps: less than 4 months
polyps
  effect on polyps: regression of polyps; also recorded: polyp growth resumed following sulindac withdrawal
[8]
  absorption / activation: converted to its active metabolite, sulindac sulfide, by the colonic bacteria
